# From patent publication US20240208964A1, “PYRIDOPYRIMIDINES AND METHODS OF THEIR USE” (PYRIDOPYRIMIDINES AND METHODS OF THEIR USE, priority 2020, published 2024)
# pIC50: −log10 of the molar value.
# Target: full-length human PIKFYVE (GST-PIKFYVE) (Homo sapiens (Human), UniProt Q9Y2I7, L932S/Q1183K/Q995L/S1033A/S696N/T998S)
# Test: PIKfyve biochemical assay (ADP-Glo Kinase assay, Carna Biosciences)
# Conditions: ADP-Glo, full-length human PIKFYVE; read-out: hPIKfyve IC50
# Description: PIKfyve Biochemical Assay. The biochemical PIKFyve inhibition assays were run by Carna Biosciences according to proprietary methodology based on the Promega ADP-Glo™ Kinase assay. A full-length human PIKFYVE [1-2098(end) amino acids and S696N, L932S, Q995L, T998S, S1033A and Q1183K of the protein having the sequence set forth in NCBI Reference Sequence No. NP_055855.2] was expressed as N-terminal GST-fusion protein (265 kDa) using baculovirus expression system. GST-PIKFYVE was purified by using glutathione sepharose chromatography and used in an ADP-Glo™ Kinase assay (Promega). Reactions were set up by adding the test compound solution, substrate solution, ATP solution and kinase solution, each at 4× final concentrations. Reactions were prepared with assay buffer (50 mM MOPS, 1 mM DTT, pH7.2), mixed, and incubated in black 384 well polystyrene plates for 1 hour at room temperature. ADP-Glo™ reagent was then added for 40 minutes, followed by kinase detection reagent for an additional 40 minutes. The kinase activity was evaluated by detecting relative light units on a luminescence plate reader. Samples were run in duplicate from 10 μM to 3 nM. […] IC50 values were calculated from concentration vs % inhibition curves by fitting to a four-parameter logistic curve.
# The biochemical PIKFyve inhibition assays were run by Carna Biosciences according to proprietary methodology based on the Promega ADP-Glo™ Kinase assay. A full-length human PIKFYVE [1-2098(end) amino acids and S696N, L932S, Q995L, T998S, S1033A and Q1183K of accession number NP_055855.2] was expressed as N-terminal GST-fusion protein (265 kDa) using baculovirus expression system. GST-PIKFYVE was purified by using glutathione sepharose chromatography and used in an ADP-Glo™ Kinase assay (Promega).
# Reactions were set up by adding the test compound solution, substrate solution, ATP solution and kinase solution, each at 4× final concentrations. Reactions were prepared with assay buffer (50 mM MOPS, 1 mM DTT, pH7.2), mixed, and incubated in black 384 well polystyrene plates for 1 hour at room temperature. ADP-Glo™ reagent was then added for 40 minutes, followed by kinase detection reagent for an additional 40 minutes. The kinase activity was evaluated by detecting relative light units on a luminescence plate reader. Samples were run in duplicate from 10 uM to 3 nM. […] IC50 values were calculated from concentration vs % inhibition curves by fitting to a four-parameter logistic curve.
# Sequence of full-length human PIKFYVE (GST-PIKFYVE) (Q9Y2I7 whole entry S696N/L932S/Q995L/T998S/S1033A/Q1183K): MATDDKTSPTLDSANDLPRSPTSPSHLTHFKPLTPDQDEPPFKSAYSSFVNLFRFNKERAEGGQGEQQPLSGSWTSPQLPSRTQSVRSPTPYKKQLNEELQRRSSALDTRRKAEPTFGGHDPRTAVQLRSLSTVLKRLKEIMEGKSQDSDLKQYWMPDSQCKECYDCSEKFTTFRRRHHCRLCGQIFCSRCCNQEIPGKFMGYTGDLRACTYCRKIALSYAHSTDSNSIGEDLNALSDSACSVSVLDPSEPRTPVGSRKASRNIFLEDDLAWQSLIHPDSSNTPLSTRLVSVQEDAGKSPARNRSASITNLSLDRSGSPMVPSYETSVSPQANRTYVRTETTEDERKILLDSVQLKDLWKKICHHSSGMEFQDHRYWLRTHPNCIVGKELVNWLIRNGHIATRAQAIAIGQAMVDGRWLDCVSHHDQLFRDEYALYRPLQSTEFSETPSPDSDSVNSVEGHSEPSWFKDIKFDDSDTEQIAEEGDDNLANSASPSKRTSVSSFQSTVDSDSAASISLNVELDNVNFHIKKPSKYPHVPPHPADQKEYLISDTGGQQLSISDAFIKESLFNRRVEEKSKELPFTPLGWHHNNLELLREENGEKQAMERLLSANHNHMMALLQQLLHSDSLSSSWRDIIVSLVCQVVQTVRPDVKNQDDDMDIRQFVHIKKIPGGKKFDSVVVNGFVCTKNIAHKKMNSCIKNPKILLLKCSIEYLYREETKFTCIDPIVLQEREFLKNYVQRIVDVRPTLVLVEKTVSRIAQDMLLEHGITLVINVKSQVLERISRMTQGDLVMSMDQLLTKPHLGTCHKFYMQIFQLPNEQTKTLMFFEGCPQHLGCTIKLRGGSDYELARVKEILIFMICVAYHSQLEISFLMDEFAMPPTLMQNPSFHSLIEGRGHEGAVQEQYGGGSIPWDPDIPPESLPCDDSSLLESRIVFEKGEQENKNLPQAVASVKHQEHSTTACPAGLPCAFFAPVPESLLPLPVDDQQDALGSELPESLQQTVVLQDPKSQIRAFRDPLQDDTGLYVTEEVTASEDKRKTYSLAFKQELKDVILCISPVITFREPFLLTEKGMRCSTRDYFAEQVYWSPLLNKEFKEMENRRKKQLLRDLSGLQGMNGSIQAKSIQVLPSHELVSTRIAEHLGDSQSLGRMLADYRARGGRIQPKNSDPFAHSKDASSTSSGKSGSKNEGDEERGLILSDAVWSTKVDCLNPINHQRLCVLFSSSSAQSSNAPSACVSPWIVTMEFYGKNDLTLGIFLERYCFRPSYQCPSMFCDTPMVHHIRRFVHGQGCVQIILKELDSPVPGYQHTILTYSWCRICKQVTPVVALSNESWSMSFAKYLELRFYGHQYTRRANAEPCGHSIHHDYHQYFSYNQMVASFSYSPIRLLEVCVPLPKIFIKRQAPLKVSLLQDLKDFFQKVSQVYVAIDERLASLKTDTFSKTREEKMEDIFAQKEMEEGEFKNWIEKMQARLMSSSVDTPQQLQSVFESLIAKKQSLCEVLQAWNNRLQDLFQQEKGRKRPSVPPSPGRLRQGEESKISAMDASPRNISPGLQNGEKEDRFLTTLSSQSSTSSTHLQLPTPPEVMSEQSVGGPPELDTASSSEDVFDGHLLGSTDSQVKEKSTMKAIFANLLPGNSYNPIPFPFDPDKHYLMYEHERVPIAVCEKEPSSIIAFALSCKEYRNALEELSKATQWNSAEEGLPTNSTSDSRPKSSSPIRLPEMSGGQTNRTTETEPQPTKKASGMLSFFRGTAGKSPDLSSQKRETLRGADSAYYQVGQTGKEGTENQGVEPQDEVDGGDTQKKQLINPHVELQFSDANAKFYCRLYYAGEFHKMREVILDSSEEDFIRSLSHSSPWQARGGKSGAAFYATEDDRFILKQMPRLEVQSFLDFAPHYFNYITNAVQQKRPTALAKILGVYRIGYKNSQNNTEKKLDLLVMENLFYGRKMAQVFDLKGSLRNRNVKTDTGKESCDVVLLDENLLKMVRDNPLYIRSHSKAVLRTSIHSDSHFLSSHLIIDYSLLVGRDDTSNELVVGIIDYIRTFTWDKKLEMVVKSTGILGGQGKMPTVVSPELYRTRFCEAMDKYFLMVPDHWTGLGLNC
row,SMILES,pIC50
1,"CCC(=O)N1CCC(c2ccn(-c3nc(N4CCOCC4)c4ncccc4n3)n2)CC1 [compound 1, 1-[4-[1-(4-morpholinopyrido[3,2-d]pyrimidin-2-yl)pyrazol-3-yl]-1-piperidyl]propan-1-one]",5.00 to 6.00
2,"c1cnc2c(N3CCOCC3)nc(-n3ccc(-c4cncnc4)n3)nc2c1 [compound 2, 4-[2-(3-pyrimidin-5-ylpyrazol-1-yl)pyrido[3,2-d]pyrimidin-4-yl]morpholine]",5.00 to 6.00
3,"CC(C)(C)OC(=O)N1CC=C(c2ccn(-c3nc(N4CCOCC4)c4ncccc4n3)n2)CC1 [compound 3, tert-butyl 4-[1-(4-morpholinopyrido[3,2-d]pyrimidin-2-yl)pyrazol-3-yl]-3,6-dihydro-2H-pyridine-1-carboxylate]",5.00 to 6.00
4,"CC(C)(C)OC(=O)N1CCC=C(c2ccn(-c3nc(N4CCOCC4)c4ncccc4n3)n2)C1 [compound 4, tert-butyl 3-(1-(4-morpholinopyrido[3,2-d]pyrimidin-2-yl)-1H-pyrazol-3-yl)-5,6-dihydropyridine-1(2H)-carboxylate]",5.00 to 6.00
5,"CC(C)(C)OC(=O)N1CCC(c2ccn(-c3nc(N4CCOCC4)c4ncccc4n3)n2)CC1 [compound 5, tert-butyl 4-[1-(4-morpholinopyrido[3,2-d]pyrimidin-2-yl)pyrazol-3-yl]piperidine-1-carboxylate]",5.00 to 6.00
6,"CC(C)(C)OC(=O)N1CCCC(c2ccn(-c3nc(N4CCOCC4)c4ncccc4n3)n2)C1 (centres unmarked) [compound 6, tert-butyl 3-(1-(4-morpholinopyrido[3,2-d]pyrimidin-2-yl)-1H-pyrazol-3-yl)piperidine-1-carboxylate]",5.00 to 6.00
7,"c1ccc2nn(-c3nc(N4CCOCC4)c4ncccc4n3)cc2c1 [compound 7, 4-(2-indazol-2-ylpyrido[3,2-d]pyrimidin-4-yl)morpholine]",6.00 to 7.00
8,"CC(C)c1ccn(-c2nc(N3CCOCC3)c3ncccc3n2)n1 [compound 9, 4-(2-(3-isopropyl-1H-pyrazol-1-yl)pyrido[3,2-d]pyrimidin-4-yl)morpholine]",5.00 to 6.00
9,"c1cnc2c(N3CCOCC3)nc(-n3ccc(-c4ccncc4)n3)nc2c1 [compound 10, 4-(2-(3-(pyridin-4-yl)-1H-pyrazol-1-yl)pyrido[3,2-d]pyrimidin-4-yl)morpholine]",6.00 to 7.00
10,"c1cncc(-c2ccn(-c3nc(N4CCOCC4)c4ncccc4n3)n2)c1 [compound 11, 4-(2-(3-(pyridin-3-yl)-1H-pyrazol-1-yl)pyrido[3,2-d]pyrimidin-4-yl)morpholine]",6.00 to 7.00
11,"c1ccc(-c2ccn(-c3nc(N4CCOCC4)c4ncccc4n3)n2)nc1 [compound 12, 4-(2-(3-(pyridin-2-yl)-1H-pyrazol-1-yl)pyrido[3,2-d]pyrimidin-4-yl)morpholine]",7.00 to 8.00
12,c1ccc(-c2ccn(-c3nc(N4CCOCC4)c4ccncc4n3)n2)cc1 [compound 13],6.00 to 7.00
13,"CCc1cnc2c(N3CCOCC3)nc(-n3ccc(-c4ccncc4)n3)nc2c1 [compound 14, 4-(7-Ethyl-2-(3-(pyridin-4-yl)-1H-pyrazol-1-yl)pyrido[3,2-d]pyrimidin-4-yl)morpholine]",5.00 to 6.00
14,"c1ccc(Nc2nc(N3CCOCC3)c3ncc(-c4ccco4)cc3n2)cc1 [compound 15, 7-(furan-2-yl)-4-morpholino-N-phenylpyrido[3,2-d]pyrimidin-2-amine]",6.00 to 7.00
15,"c1ccc(Oc2nc(N3CCOCC3)c3ncc(-c4ccco4)cc3n2)cc1 [compound 16, 4-(7-(furan-2-yl)-2-phenoxypyrido[3,2-d]pyrimidin-4-yl)morpholine]",< 5.00
16,"c1ccc(-c2ccn(-c3nc(N4CCOCC4)c4ncc(C5CCCOC5)cc4n3)n2)cc1 (centres unmarked) [compound 19, 4-(2-(3-Phenyl-1H-pyrazol-1-yl)-7-(tetrahydro-2H-pyran-3-yl)pyrido[3,2-d]pyrimidin-4-yl)morpholine]",7.00 to 8.00
17,"Cc1cccc(CCNc2nc(N3CCOCC3)c3ncccc3n2)c1 [compound 23, N-(3-methylphenethyl)-4-morpholinopyrido[3,2-d]pyrimidin-2-amine]",6.00 to 7.00
18,"Oc1cc(-c2ccccc2)nn1-c1nc(N2CCOCC2)c2cccnc2n1 [compound 25, 2-(4-morpholinopyrido[2,3-d]pyrimidin-2-yl)-5-phenyl-2,4-dihydro-3H-pyrazol-3-one]",5.00 to 6.00

row,SMILES,pIC50
1,"Oc1cc(-c2ccccc2)nn1-c1nc(N2CCOCC2)c2ncccc2n1 [compound 27, 1-(4-morpholinopyrido[3,2-d]pyrimidin-2-yl)-3-phenyl-1H-pyrazol-5-ol]",7.00 to 8.00
2,"O=C1N(c2cccc(F)c2)CCN1c1nc(N2CCOCC2)c2ncccc2n1 [compound 28, 1-(3-fluorophenyl)-3-(4-morpholinopyrido[3,2-d]pyrimidin-2-yl)imidazolidin-2-one]",5.00 to 6.00
3,"O=C1N(c2ccccc2)CCN1c1nc(N2CCOCC2)c2ncccc2n1 [compound 29, 1-(4-morpholinopyrido[3,2-d]pyrimidin-2-yl)-3-phenyl-imidazolidin-2-one]",5.00 to 6.00
4,"O=C1N(c2nc(N3CCOCC3)c3ncccc3n2)CCN1C1CCCC1 [compound 30, 1-cyclopentyl-3-(4-morpholinopyrido[3,2-d]pyrimidin-2-yl)imidazolidin-2-one]",5.00 to 6.00
5,"CCn1c(-c2ccccc2)nn(-c2nc(N3CCOCC3)c3ncccc3n2)c1=O [compound 31, 4-ethyl-2-(4-morpholinopyrido[3,2-d]pyrimidin-2-yl)-5-phenyl-1,2,4-triazol-3-one]",5.00 to 6.00
6,"Cn1c(-c2ccccc2)nn(-c2nc(N3CCOCC3)c3ncccc3n2)c1=O [compound 32, 4-methyl-2-(4-morpholinopyrido[3,2-d]pyrimidin-2-yl)-5-phenyl-1,2,4-triazol-3-one]",5.00 to 6.00
7,"CC(C)(C)OC(=O)N1CCC(c2nccc(-c3nc(N4CCOCC4)c4ncccc4n3)n2)CC1 [compound 33, tert-butyl 4-[4-(4-morpholinopyrido[3,2-d]pyrimidin-2-yl)pyrimidin-2-yl]piperidine-1-carboxylate]",5.00 to 6.00
8,"c1cnc2c(N3CCOCC3)nc(-c3ccnc(N4CCNCC4)n3)nc2c1 [compound 34, 4-[2-(2-piperazin-1-ylpyrimidin-4-yl)pyrido[3,2-d]pyrimidin-4-yl]morpholine]",5.00 to 6.00
9,"c1cnc2c(N3CCOCC3)nc(-c3ccnc(C4CCOCC4)n3)nc2c1 [compound 35, 4-[2-(2-tetrahydropyran-4-ylpyrimidin-4-yl)pyrido[3,2-d]pyrimidin-4-yl]morpholine]",5.00 to 6.00
10,"c1cnc2c(N3CCOCC3)nc(-c3ccnc(C4CCNCC4)n3)nc2c1 [compound 37, 4-[2-[2-(4-piperidyl)pyrimidin-4-yl]pyrido[3,2-d]pyrimidin-4-yl]morpholine]",5.00 to 6.00
11,"CN1CCC(c2nccc(-c3nc(N4CCOCC4)c4ncccc4n3)n2)CC1 [compound 38, 4-[2-[2-(1-methyl-4-piperidyl)pyrimidin-4-yl]pyrido[3,2-d]pyrimidin-4-yl]morpholine]",5.00 to 6.00
12,"c1cnc2c(N3CCOCC3)nc(-n3ccc(C4CCNCC4)n3)nc2c1 [compound 42, 4-[2-[3-(4-piperidyl)pyrazol-1-yl]pyrido[3,2-d]pyrimidin-4-yl]morpholine]",5.00 to 6.00
13,"c1cnc2c(N3CCOCC3)nc(-n3ccc(C4CCCNC4)n3)nc2c1 (centres unmarked) [compound 43, 4-(2-(3-(piperidin-3-yl)-1H-pyrazol-1-yl)pyrido[3,2-d]pyrimidin-4-yl)morpholine]",5.00 to 6.00
14,"CN1CCCC(c2ccn(-c3nc(N4CCOCC4)c4ncccc4n3)n2)C1 (centres unmarked) [compound 44, 4-(2-(3-(1-methylpiperidin-3-yl)-1H-pyrazol-1-yl)pyrido[3,2-d]pyrimidin-4-yl)morpholine]",5.00 to 6.00
15,"c1cnc2c(N3CCOCC3)nc(-n3ccc(C4CCOCC4)n3)nc2c1 [compound 45, 4-(2-(3-(tetrahydro-2H-pyran-4-yl)-1H-pyrazol-1-yl)pyrido[3,2-d]pyrimidin-4-yl)morpholine]",5.00 to 6.00
16,"c1ccc(-c2ccn(-c3nc(N4CCOCC4)c4cnccc4n3)n2)cc1 [compound 46, 4-(2-(3-phenyl-1H-pyrazol-1-yl)pyrido[4,3-d]pyrimidin-4-yl)morpholine]",5.00 to 6.00
17,c1cnc2c(N3CCOCC3)nc(-n3ccc(C4CCCNC4)n3)nc2c1 (centres unmarked) [compound 48],5.00 to 6.00

# Same assay, conditions: values plotted in FIG. 7; read-out: PIKFYVE Biochemistry (IC50)
row,SMILES,pIC50
1,c1ccc(-c2nc(-c3cc(N4CCOCC4)nc(OCc4ccncc4)n3)no2)cc1,< 5.00
2,O=c1c(CCOc2cccnc2)cc2ncncc2n1-c1ccccc1,< 5.00
3,O=c1ccn(Cc2nc(N3CCOCC3)cc(-n3nccc3-c3ccccc3)n2)cc1,< 5.00
